Source: patent publication US4857652A, “Chemiluminescent 1,2-dioxetane compounds” (priority 1988, dated 1989)

Tests used:
[1] = system: alkaline phosphatase, Type VII-S from Bovine Intestinal Mucosa; experiment: Enzymatic triggering of chemiluminescence with alkaline phosphatase (bovine); type: biochemical; details: 2-amino-2-methyl-1-propanol buffer pH 10.3, 37° C., 10 μL enzyme suspension
Method: A cuvette containing 3 mL of a buffer solution of 2-amino-2-methyl-1-propanol (Sigma Chemical Co., pH=10.3, 1.5M) was placed in the black box at 37° C. A portion (200 μL) of the dioxetane stock solution (6d in CH2 Cl2) was added to this buffer solution. Subsequent addition of 10 μL of an alkaline phosphatase suspension [Sigma, Type VII-S from Bovine Intestinal Mucosa, suspension in 3.2M (NH4)2 SO4 ] gave rise to chemiluminescence over a period of approximately 2-3 min indicating the enzymatic triggering of the dioxetane.

[2] = 25° C.; cited from earlier work

Compound `O=P(O)(O)Oc1ccc2c(c1)Oc1ccccc1C21OOC12C1CC3CC(C1)CC2C3` (centres unmarked) [Dioxetane 6d, Dispiro[adamantane-2,3'-[1,2]dioxetane-4',9"-(3-phosphate-9H-xanthene]] has a period of chemiluminescence [1] of 2 to 3 min.

In the case of `Oc1ccc(C23OCCOC2(c2ccccc2)OO3)cc1` (centres unmarked) [deprotonated dioxetane (X=O^-)], the “rate of decomposition relative to protonated form (X=OH)” value [2] is listed as 5.7×10^6 times.
